# Data: PMC6272178, “Flavonoids from Sideritis Species: Human Monoamine Oxidase (hMAO) Inhibitory Activities, Molecular Docking Studies and Crystal Structure of Xanthomicrol” (Molecules, 2015)
# Like-named read-outs stand apart in the source and are kept apart here.
# Legend:
# hMAO-A [1] = target: T1, hMAO-A (Homo sapiens, UniProt P21397); test: Reversibility of hMAO-A inhibition, centrifugation-ultrafiltration method; assay type: biochemical; settings: for inhibition at 0.5 µM: compound 0.50 μM, mean ± SEM of three experiments; for Reversibility of hMAO-A inhibition: recovery of hMAO-A activity after repeated washing
# T1 construct: purchased Sigma-Aldrich (Munich, Germany); host or cells: baculovirus-infected BTI insect cells
# T1 sequence (P21397 1-527): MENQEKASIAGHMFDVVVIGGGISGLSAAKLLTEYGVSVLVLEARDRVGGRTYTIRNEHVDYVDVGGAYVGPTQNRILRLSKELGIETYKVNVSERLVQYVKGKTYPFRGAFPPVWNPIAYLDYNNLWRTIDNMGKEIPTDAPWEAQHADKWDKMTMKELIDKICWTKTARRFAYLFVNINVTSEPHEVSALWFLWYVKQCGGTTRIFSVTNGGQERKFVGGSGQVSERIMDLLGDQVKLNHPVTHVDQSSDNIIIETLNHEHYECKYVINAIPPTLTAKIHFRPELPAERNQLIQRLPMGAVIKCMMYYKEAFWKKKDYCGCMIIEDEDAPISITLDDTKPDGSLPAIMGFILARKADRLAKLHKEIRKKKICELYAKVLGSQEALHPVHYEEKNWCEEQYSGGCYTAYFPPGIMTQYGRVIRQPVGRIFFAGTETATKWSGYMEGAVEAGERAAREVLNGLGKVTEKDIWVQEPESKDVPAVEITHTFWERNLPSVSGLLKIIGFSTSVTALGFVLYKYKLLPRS
# Protocol: Reversibility of the MAO inhibition with newly synthesized compounds was determined by centrifugation-ultrafiltration method previously described. Recombinant enzymes (hMAO-A or B) were incubated with a single concentration of the synthesized compounds or the reference inhibitors in a sodium phosphate buffer (0.05 M, pH 7.4) for one hour at 37 °C. An aliquot was stored at 4 °C and used for the measurement of MAO-A and -B activities. The remaining incubated sample was placed in an Ultrafree-0.5 centrifugal tube with a 30 kDa Biomax membrane and centrifuged at 9000× g for 20 min at 4 °C. The enzyme retained in the 30 kDa membrane was re-suspended in a sodium phosphate buffer at 4 °C and centrifuged two more times. After the third centrifugation, the enzyme retained in the membrane was re-suspended in sodium phosphate buffer ([…]) and an aliquot of this suspension was used for MAO-A and -B activity determination. Control experiments were performed simultaneously to determine the 100% MAO activity by replacing the compounds and standards with appropriate dilutions of the vehicles. The corresponding values of percent (%) MAO isoform inhibition was separately calculated for samples with and without repeated washing.
# hMAO-A [2] = target: T1, hMAO-A; test: hMAO-A inhibition, fluorimetric Amplex Red assay with p-tyramine, kinetic Ki determination; assay type: biochemical; settings: for Mode of hMAO-A inhibition: Lineweaver–Burk plots; for Experimental SI: SI = Ki (MAO-A)/Ki (MAO-B); for Experimental SI / Selectivity: from experimental Ki values; for Selectivity: isoform preferentially inhibited; for Ki: recombinant hMAO-A, p-tyramine substrate 0.05–0.5 mM, mean ± SEM of three experiments, read-out: Experimental Ki for MAO-A
# hMAO-B = target: T2, hMAO-B (Homo sapiens, UniProt P27338); test: hMAO-B inhibition, fluorimetric Amplex Red assay with p-tyramine, kinetic Ki determination; assay type: biochemical; settings: recombinant hMAO-B, p-tyramine substrate 0.05–0.5 mM, mean ± SEM of three experiments; read-out: Experimental Ki for MAO-B
# T2 construct: purchased Sigma-Aldrich (Munich, Germany); host or cells: baculovirus-infected BTI insect cells
# T2 sequence (P27338 1-520): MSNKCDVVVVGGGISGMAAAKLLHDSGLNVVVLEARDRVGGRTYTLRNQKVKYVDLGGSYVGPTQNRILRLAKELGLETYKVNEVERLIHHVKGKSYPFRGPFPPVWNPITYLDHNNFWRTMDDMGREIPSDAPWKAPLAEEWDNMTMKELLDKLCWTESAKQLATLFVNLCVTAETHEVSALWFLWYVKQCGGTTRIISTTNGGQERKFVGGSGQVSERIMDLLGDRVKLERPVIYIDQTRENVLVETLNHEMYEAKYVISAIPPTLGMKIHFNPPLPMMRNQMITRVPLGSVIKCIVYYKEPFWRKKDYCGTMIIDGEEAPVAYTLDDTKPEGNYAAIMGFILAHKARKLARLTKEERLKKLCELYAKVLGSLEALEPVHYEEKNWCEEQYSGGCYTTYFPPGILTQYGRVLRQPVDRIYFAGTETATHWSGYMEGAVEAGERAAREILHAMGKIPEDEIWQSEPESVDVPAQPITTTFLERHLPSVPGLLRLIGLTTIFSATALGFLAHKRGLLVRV
# mouse brain MAO-A = tested on: mouse brain MAO-A; design: method as in PMID 24218136, PMID 25142815; settings: flavonoids from Cayratia japonica; cited from earlier work
# [3] = after repeated washing (three centrifugation-ultrafiltration steps), read-out: hMAO-A Inhibition (%) After Washing
# [4] = incubated one hour at 37 °C, before washing, read-out: hMAO-A Inhibition (%) Before Washing
SMILES,inhibition at 0.5 µM (hMAO-A [1]; [3]) [%],inhibition at 0.5 µM (hMAO-A [1]; [4]) [%],Mode of hMAO-A inhibition (hMAO-A [2]),Experimental SI (hMAO-A [2]),Selectivity (hMAO-A [2]),Ki (hMAO-A [2]) [µM],Ki (hMAO-B) [µM],Reversibility of hMAO-A inhibition (hMAO-A [1]),IC50 (mouse brain MAO-A) [µM]
"COc1c(OC)c(O)c2c(=O)cc(-c3ccc(O)cc3)oc2c1OC [Compound 1, xanthomicrol]",9.23 ± 0.75,86.5 ± 5.21,competitive,0.007,MAO-A,0.76 ± 0.03,99.5 ± 7.44,highly reversible inhibitors,–
O=c1cc(-c2ccc(O)cc2)oc2cc(O)cc(O)c12 [apigenin],–,–,–,–,–,–,–,–,1.17
"CC(=O)OC[C@H]1O[C@@H](O[C@H]2[C@H](Oc3cc(O)c4c(=O)cc(-c5ccc(O)cc5)oc4c3O)O[C@H](CO)[C@@H](O)[C@@H]2O)[C@H](O)[C@H](O)[C@@H]1O [Compound 2, isoscutellarein 7-O-[6'''-O-acetyl-β-D-allopyranosyl-(1→2)]-β-D-glucopyranoside]",10.9 ± 0.99,80.2 ± 5.66,–,0.015,MAO-A,1100 ± 99.2,75600,–,–

# Second part, led by results:
inhibition at 0.5 µM (hMAO-A [1]; [3]) [%],inhibition at 0.5 µM (hMAO-A [1]; [4]) [%],Mode of hMAO-A inhibition (hMAO-A [2]),Experimental SI (hMAO-A [2]),Selectivity (hMAO-A [2]),Ki (hMAO-A [2]) [µM],Ki (hMAO-B) [µM],Reversibility of hMAO-A inhibition (hMAO-A [1]),SMILES,IC50 (mouse brain MAO-A) [µM]
7.89 ± 0.52,91.2 ± 6.33,–,–,–,–,–,–,"O=C(NCCN1CCOCC1)c1ccc(Cl)cc1 [Moclobemide, moclobemide, reference compound]",–
8.66 ± 0.65,89 ± 5.02,competitive,0.086,MAO-A,0.54 ± 0.02,6.27 ± 0.36,highly reversible inhibitors,"COc1ccc(-c2cc(=O)c3c(O)c(OC)c(OC)cc3o2)cc1 [Compound 4, salvigenin]",–
13.3 ± 1.09,74.2 ± 4.89,–,0.034,MAO-A,2800 ± 180,80500,–,"CC(=O)OC[C@H]1O[C@@H](O[C@H]2[C@H](Oc3cc(O)c4c(=O)cc(-c5ccc(O)cc5)oc4c3O)O[C@H](COC(C)=O)[C@@H](O)[C@@H]2O)[C@H](O)[C@H](O)[C@@H]1O [Compound 3, isoscutellarein 7-O-[6'''-O-acetyl-β-D-allopyranosyl-(1→2)]-6''-O-acetyl-β-D-glucopyranoside]",–
